Measurements from ChEMBL document CHEMBL3997778, “β-Dihydroagarofuran-Type Sesquiterpenes from the Seeds of Celastrus monospermus and Their Lifespan-Extending Effects on the Nematode Caenorhabditis elegans” (2016).

Tests used:
Caenorhabditis elegans [1] = assay: Increase in life span of Caenorhabditis elegans Bristol N2 at late L4 larval stage at 50 uM in presence of 5-fluorodesoxyuridine relative to control; type: functional
Caenorhabditis elegans [2] = assay: Increase in life span of Caenorhabditis elegans Bristol N2 at late L4 larval stage at 100 uM in presence of 5-fluorodesoxyuridine relative to control; type: functional

Structure (SMILES)	ILS at 50 µM (Caenorhabditis elegans [1]) [%]	ILS at 100 µM (Caenorhabditis elegans [2]) [%]
CC(=O)O[C@@H]1[C@@H]2[C@@H](OC(C)=O)[C@]3(OC2(C)C)[C@H](C)CC(=O)[C@H](OC(C)=O)[C@@]3(C)[C@@H]1OC(=O)c1ccccc1	37	–
CC(=O)O[C@H]1[C@@H]2[C@@H](OC(C)=O)[C@]3(OC2(C)C)[C@H](C)C[C@@H](OC(C)=O)[C@H](OC(C)=O)[C@@]3(C)[C@H]1OC(=O)c1ccccc1	15	–
CO[C@H]1C[C@@H]2CC[C@@H](C)[C@@](O)(O2)C(=O)C(=O)N2CCCC[C@H]2C(=O)O[C@H]([C@H](C)C[C@@H]2CC[C@@H](O)[C@H](OC)C2)CC(=O)[C@H](C)/C=C(\C)[C@@H](O)[C@@H](OC)C(=O)[C@H](C)C[C@H](C)/C=C/C=C/C=C/1C [SIROLIMUS]	–	38
CC(=O)O[C@@H]1[C@@H]2[C@@H](OC(C)=O)[C@]3(OC2(C)C)[C@H](C)C[C@@H](OC(C)=O)[C@H](OC(C)=O)[C@@]3(C)[C@@H]1OC(=O)c1ccccc1	17	–
CC(=O)O[C@H]1[C@@H]2C[C@]3(OC2(C)C)[C@H](C)C[C@H](OC(C)=O)[C@@H](OC(C)=O)[C@@]3(C)[C@H]1OC(=O)c1ccccc1	12	–
CC(=O)O[C@@H]1[C@H]2C[C@H](OC(=O)c3ccccc3)[C@]3(C)[C@@H](OC(C)=O)[C@H](OC(C)=O)C[C@@H](C)[C@@]13OC2(C)C	14	–
CC(=O)O[C@@H]1[C@@H]2[C@@H](OC(C)=O)[C@]3(OC2(C)C)[C@H](C)CC[C@H](O)[C@@]3(C)[C@@H]1OC(=O)c1ccccc1	16	–
CC(=O)O[C@H]1[C@@H]2[C@@H](OC(=O)c3ccccc3)[C@]3(OC2(C)C)[C@H](C)C[C@@H](OC(C)=O)[C@H](OC(C)=O)[C@@]3(C)[C@H]1OC(=O)c1ccccc1	28	–
CC(=O)OC[C@]12[C@@H](OC(=O)c3ccccc3)[C@@H](OC(C)=O)[C@@H]3[C@@H](OC(C)=O)[C@]1(OC3(C)C)[C@H](C)C[C@H](OC(C)=O)[C@@H]2OC(C)=O	16	–
CC(=O)O[C@@H]1[C@@H]2[C@@H](OC(C)=O)[C@]3(OC2(C)C)[C@H](C)C[C@H](OC(=O)/C=C/c2ccccc2)[C@H](OC(C)=O)[C@@]3(C)[C@@H]1OC(=O)c1ccccc1	15	–
